# Source: the NIST ThermoML archive (doi:10.1016/j.fluid.2015.05.003)
# ± gives the expanded uncertainty stated by the source.
# Conditions: 298.15 K; 101.33 kPa; Liquid
row,Structure (SMILES),mass density [kg/m3]
1,CCCCCCCC[n+]1ccc2ccccc2c1.N#C[S-] [2-octylisoquinolinium thiocyanate],1061.69 ± 1.2
2,CCCCCC[n+]1ccc2ccccc2c1.N#C[S-] [2-hexylisoquinolinium thiocyanate],1081.34 ± 1.2
